Reference: ChEMBL document CHEMBL3352682, “Unusual C,O-Fused Glycosylapigenins from Serjania marginata Leaves” (J Nat Prod, 2015)
Converted amounts (≈) assume the structure as drawn.

Experiments:
[1] = Antioxidant activity assessed as DPPH radical scavenging activity after 30 mins by UV-spectrophotometry; format: physicochemical
[2] = Antioxidant activity assessed as DPPH radical scavenging activity at <= 20 ug/ml after 30 mins by UV-spectrophotometry; format: physicochemical; settings: 0.5 h

Row | Compound | IC50 [1] | inhibition (INH) [2]
1 | C[C@@H]1O[C@@H](O[C@H]2C(=O)[C@@H](O)[C@H](C)O[C@@H]2c2c(O)cc3oc(-c4ccc(O)cc4)cc(=O)c3c2O)[C@H](O)[C@H](O)[C@H]1O | Not Active | Not Active
2 | O=C(O)c1cc(O)c(O)c(O)c1 [GALLIC ACID] | 8.42 µg/mL (≈ 49.5 µM) | –
3 | C[C@@H]1O[C@@H](O[C@H]2C(=O)[C@@H](O)[C@H](C)O[C@@H]2c2c(O)cc(O)c3c(=O)cc(-c4ccc(O)cc4)oc23)[C@H](O)[C@H](O)[C@H]1O | Not Active | Not Active

Next, values leading:

Row | IC50 [1] | inhibition (INH) [2] | Compound
4 | 9.71 µg/mL (≈ 16.8 µM) | – | Oc1cc(O)c2c(c1)O[C@@]1(c3ccc(O)c(O)c3)Oc3cc(O)c4c(c3[C@@H]2[C@H]1O)O[C@H](c1ccc(O)c(O)c1)[C@H](O)C4 [PROANTHOCYANIDIN A2]
5 | 5.3 µg/mL (≈ 6.13 µM) | – | Oc1cc(O)c2c(c1)O[C@@]1(c3ccc(O)c(O)c3)Oc3cc(O)c4c(c3[C@@H]2[C@H]1O)O[C@H](c1ccc(O)c(O)c1)[C@H](O)[C@H]4c1c(O)cc(O)c2c1O[C@H](c1ccc(O)c(O)c1)[C@H](O)C2 [CINNAMTANNIN B1]
6 | 8.55 µg/mL (≈ 14.8 µM) | – | Oc1cc(O)c2c(c1)O[C@@]1(c3ccc(O)c(O)c3)Oc3cc(O)c4c(c3[C@@H]2[C@H]1O)O[C@H](c1ccc(O)c(O)c1)[C@@H](O)C4 [PROANTHOCYANIDIN A1]
